Experimental data: patent EP0241134B1, “Pharmaceutical mixture comprising nedocromil or a salt thereof in combination with a bronchodilator” (FISONS plc, priority 1986, dated 1987)

Tested on: acetyl choline or histamine induced bronchospasm
Assay: Duration of action: inhibition of acetyl choline or histamine induced bronchospasm by equiactive i.v. doses
Type: in vivo
Conditions: anaesthetised guinea-pigs
Text: We prefer the B₂ selective bronchodilator to be long acting. By the term 'long acting' we mean that the compound has a longer duration of action as a relaxant of bronchial smooth muscle in pharmacological tests than does isoprenaline or orciprenaline. For duration of action studies, a comparison is made of the effect of equiactive i.v. doses as inhibitors of acetyl choline or histamine induced bronchospasm in anaesthetised guinea-pigs. The duration of action of isoprenaline in such a test is relatively short (control response back to normal in 10 to 25 minutes). In the case of a compound with a longer duration of action, the control response would only return to normal over a several-fold longer period of time.

SMILES: CC(C)NCC(O)c1ccc(O)c(O)c1 (stereo not shown) [isoprenaline]
- duration of action (control response back to normal): 10 to 25 min
